# Test results from PubChem BioAssay (NCI).
# Where “and” joins values, the source holds several entries; their conditions need not be identical. Identical values can stand only once.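 Grown in 96-well plates, cells were treated for 48 hours with each compound at five concentrations. Insufficient inhibition: endpoint recorded as highest concentration tested. The concentration for 50% growth inhibition is given as GI50. TGI: concentration producing complete growth inhibition.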
# Experiments:
# Assay in all cases: DTP human tumour cell line panel, 48 h
# [1] = tested on: RPMI-8226 leukemia
# [2] = tested on: NCI-H226 lung
# [3] = tested on: NCI/ADR-RES ovarian
# [4] = tested on: UACC-62 melanoma
# [5] = tested on: OVCAR-4 ovarian
# [6] = tested on: OVCAR-8 ovarian
# [7] = tested on: UO-31 renal
# [8] = tested on: SW-620 colon
# [9] = tested on: SF-268 CNS
# [10] = tested on: SNB-75 CNS
# [11] = tested on: MALME-3M melanoma
# [12] = tested on: A498 renal
Compound,TGI [1],TGI [2],TGI [3],TGI [4],TGI [5],TGI [6],TGI [7],TGI [8],TGI [9],TGI [10],TGI [11],TGI [12],GI50 [1],GI50 [9],GI50 [10],GI50 [2],GI50 [3],GI50 [4],GI50 [11],GI50 [7]
COC(=O)C(CC(C)C)NC(=O)C(NC(=O)c1ccc(-c2ccc(Cl)cc2Cl)o1)C(C)C (centres undefined),40.3 µM,> 100 µM,> 100 µM,44.8 µM,> 100 µM,> 100 µM,61.2 µM,> 100 µM,56.6 µM,> 100 µM,–,–,–,–,–,–,–,–,–,–
CCOC(=O)Cc1cc(OC)c(OC)cc1/C(Cl)=C(\CO)c1ccc(OC)c(OC)c1,> 100 µM,–,–,> 100 µM,> 100 µM,> 100 µM,> 100 µM,> 100 µM,–,54 µM,> 100 µM,–,–,–,–,–,–,–,–,–
O=C(Nc1ccc([N+](=O)[O-])cc1)Nn1cnnc1,> 100 µM,2.31 µM,–,> 100 µM,43.2 µM,67 µM,> 100 µM,> 100 µM,> 100 µM,> 100 µM,80 µM,> 100 µM,–,–,–,–,–,–,–,–
CCNC(=O)C(C)C1CCC2(C)C=CC(=O)C(C)=C2C1O (centres undefined),> 100 µM,> 100 µM,> 100 µM,> 100 µM,> 100 µM,> 100 µM,> 100 µM,> 100 µM,> 100 µM,> 100 µM,–,> 100 µM,–,–,–,–,–,–,–,–
Nc1nc(Nc2ccc(Cl)c(Cl)c2)nc2nc[nH]c12,62.8 µM,50.2 µM,38.3 µM,29 µM,48.4 µM,28 µM,21.3 µM,41.6 µM,22.9 µM,20.9 µM,32.5 µM,21.7 µM,–,–,–,–,–,–,–,–
COc1cc(OC2OC(CO)C(O)C(O)C2O)c2c(O)c3c(=O)cc(C)oc3cc2c1 (centres undefined),> 100 µM,> 100 µM,–,> 100 µM,> 100 µM,> 100 µM,> 100 µM,> 100 µM,> 100 µM,> 100 µM,> 100 µM,> 100 µM,–,–,–,–,–,–,–,–
FC(F)(F)c1ccc2c(c1)N(CCCNCCN1CCOCC1)c1ccccc1S2,28.9 µM,–,–,27.8 µM,–,32.8 µM,17.5 µM,21.9 µM,37.2 µM,20.9 µM,7.15 µM,34.9 µM,–,–,–,–,–,–,–,–
OCC#CCNCl,> 100 µM,> 100 µM,> 100 µM,> 100 µM,> 100 µM,> 100 µM,> 100 µM,> 100 µM,> 100 µM,> 100 µM,> 100 µM,> 100 µM,–,–,–,–,–,–,–,–
N#C/C(=C\c1ccncc1)c1csc2ccccc12,52.3 µM,> 77.1 µM,61.8 µM,> 76.4 µM,> 100 µM,> 85.1 µM,> 83.2 µM,67.7 µM,82.5 µM,78.5 µM,> 96.2 µM,66.6 µM,–,–,–,–,–,–,–,–
COc1ccccc1/C=C(/C)[N+](=O)[O-],–,4.22 µM and 3.64 µM,8.69 µM,3.93 µM and 3.12 µM,23.6 µM and 14.8 µM,4 µM and 4.24 µM,3.36 µM and 3.39 µM,43.1 µM,30.4 µM and 4.94 µM,> 100 µM and 54.7 µM,5.72 µM and 3.97 µM,21.5 µM and 18.4 µM,0.282 µM and 0.608 µM,5.87 µM and 2.18 µM,14.1 µM and 6.99 µM,–,–,–,–,–
CCCCCC(=O)N[C@@H](c1ccco1)[C@@H](O)C(=O)O[C@H]1C[C@@]2(O)[C@@H](OC(=O)c3ccccc3)[C@@H]3[C@]4(OC(C)=O)CO[C@@H]4C[C@H](O)[C@@]3(C)C(=O)[C@H](OC(C)=O)C(=C1C)C2(C)C,8.08 µM,–,> 25 µM,–,> 25 µM,> 25 µM,> 25 µM,–,> 25 µM,–,–,–,–,0.0161 µM,0.00226 µM,0.00133 µM,0.617 µM,0.00401 µM,0.000357 µM,0.187 µM
S=c1sc2c(s1)SC(c1ccccc1)CS2 (centres undefined),> 100 µM,> 100 µM,> 100 µM,> 100 µM,> 88.2 µM,> 100 µM,> 100 µM,> 100 µM,> 100 µM,> 94.2 µM,> 100 µM,> 100 µM,–,–,–,–,–,–,–,–
Cc1ccc(/C=C2\Sc3scc(-c4ccccc4)[n+]3C2=O)cc1,35.4 µM,> 100 µM,> 58 µM,45.6 µM,> 81.1 µM,> 56.6 µM,32 µM,> 52.4 µM,45.5 µM,> 58.9 µM,–,–,–,–,–,–,–,–,–,–
O=C(NN1C(=O)C(Cl)C1c1ccccc1O)c1ccccc1O (centres undefined),> 100 µM,–,–,> 100 µM,> 100 µM,> 100 µM,63.8 µM,> 100 µM,> 100 µM,> 100 µM,> 100 µM,–,–,–,–,–,–,–,–,–
Brc1ccc(C2C3CSc4ccccc4C3=NN2c2ccccc2)cc1 (centres undefined),> 100 µM,> 100 µM,> 100 µM,> 100 µM,91.7 µM,> 100 µM,> 100 µM,> 100 µM,> 100 µM,> 100 µM,> 100 µM,> 100 µM,–,–,–,–,–,–,–,–
Cc1c(O)c(=O)ccn1CCN,> 100 µM,> 100 µM,–,> 100 µM,> 100 µM,> 100 µM,> 100 µM,> 100 µM,> 100 µM,> 100 µM,> 100 µM,> 100 µM,–,–,–,–,–,–,–,–
C[N+](C)(CCCCCC[N+](C)(C)CCCN1C(=O)c2cccc3cccc(c23)C1=O)CCCN1C(=O)c2cccc3cccc(c23)C1=O,> 100 µM,–,> 100 µM,> 100 µM,> 100 µM,> 100 µM,> 100 µM,> 100 µM,> 100 µM,–,> 100 µM,> 100 µM,–,–,–,–,–,–,–,–
O=S(O)CCCCCSSc1ccccc1,56.4 µM,–,–,79.9 µM,> 100 µM,–,> 100 µM,–,85.5 µM,99.5 µM,> 100 µM,> 100 µM,–,–,–,–,–,–,–,–
C/C(=C/C(=O)Nc1ccccc1)Nc1onc(C)c1C,> 100 µM,> 100 µM,> 100 µM,> 100 µM,> 100 µM,> 100 µM,> 100 µM,> 100 µM,> 100 µM,> 100 µM,> 100 µM,> 100 µM,–,–,–,–,–,–,–,–
CC(CSC(=N)N)C(N)=O (centres undefined),> 100 µM,> 100 µM,> 100 µM,> 100 µM,> 100 µM,> 100 µM,> 100 µM,> 100 µM,> 100 µM,> 100 µM,> 100 µM,> 100 µM,–,–,–,–,–,–,–,–
